Source: patent publication US10690673B2, “Method of treating cancer metastasis by CDK 4/6 inhibitors” (Mayo Foundation for Medical Education and Research, priority 2016, dated 2020)
Where a SMILES comes first, the peptide text is derived from it. The star is where a group is joined. Cbz = O=C(OCc1ccccc1)*

How the values were obtained:
SNAIL1 polypeptide = SNAIL1 polypeptide level by Western blotting in breast cancer cells; type: cell-based, human; details: for SNAIL1 polypeptide level: 0, 3, 6, or 9 μM for 18 hours
Experimental: FIG. 3. DUB3 deubiquitinates and stabilizes SNAIL1. (A) Cell extracts were prepared from 4 luminal and 4 basal like subtypes of human breast cancer cell lines, and expression of SNAIL1, DUB3, E-cadherin and vimentin was analyzed by Western blotting. (B) MDA-MB-231 cells stably expressing control or DUB3 shRNAs were generated and Western blot was performed with the indicated antibodies. (C) Total RNA was isolated from cells in (B). mRNAs encoding SNAIL and β-actin were determined by reverse transcription-polymerase chain reaction (RT-PCR) and agarose gel electrophoresis. (D) MDA-MB-231 cells stably expressing control or DUB3 shRNAs were treated with vehicle or MG-132 (10 μM) for 1 hour and Western blot was performed with the indicated antibodies. (E-F) T47D and MCF-7 cells were infected with virus containing vector (“V”), FLAG-DUB3 (“WT”) and the C89S (“CS”) mutant, and Western blots were performed. (F) CHX pulse-chase assay was performed in cells. (G) Cells were cotransfected with indicated plasmids and treated with MG132 for 6 hours before cell lysates were boiled and immunoprecipitated with HA beads, and the polyubiquitylated SNAIL1 polypeptide was detected by an anti-ubiquitin antibody. (H) Cells were transfected with HA-SNAIL1 and treated with MG132 for 6 hours. Cell lysates were boiled and immunoprecipitated with HA beads and incubated with GST, GST-DUB3 or GST-DUB3 C89S mutant. The polyubiquitylated SNAIL1 polypeptide was detected by an anti-ubiquitin antibody.
FIG. 10. Ser41 phosphorylation regulates DUB3 activity. (A) Cells transfected with indicated constructs were lysed and co-immunoprecipitations experiments were performed using anti-FLAG antibody. The immunoprecipates were eluted by FLAG-peptide containing buffer and the activities of DUB3 were assayed using Ubiquitin-AMC (Ub-AMC) as a substrate. (B) The eluates were detected with anti-FLAG antibody. (C) MDA-MB-231 cells were treated with either vehicle or […] for indicated periods. Western blotting was performed with indicated antibodies.
FIG. 11. Phosphorylation of Ser41 regulates DUB3 activity. (A) Cells were cotransfected with indicated plasmids and treated with vehicle or CDK 4/6 inhibitor (PD0332991 10 μM). Cell lysates were boiled and immunoprecipitated with HA beads and immunoblotted as indicated. […] (G) The migratory abilities of cells were analyzed by a wound healing assay. […] After 12 weeks, mice were sacrificed and the development of lung metastases was determined by counting and quantifying lung metastatic nodules.
FIG. 14. […] (B) MDA-MB-231 cells were treated with vehicle or LY2835219 and the migration ability of cells was measured by a wound healing assay. […] (D) HCC1806 cells were treated with vehicle or LY2835219 and the migration ability of cells was measured by a wound healing assay. […]

[1] = test system: human breast tumor biopsy sample HCI001; experiment: Patient-derived xenograft (PDX) model of triple negative breast cancer, tumor growth and metastasis; type: in vivo, mice; details: 100 mg/kg daily, PO, five weeks; saline group 6/8; significantly decreased
Experimental: FIG. 13. CDK 4/6 inhibition inhibits cancer metastasis. (A) DUB3 and SNAIL1 polypeptide levels in a subset of human breast tumor biopsy samples were examined. (B) Passage 3 tumors from HCI001 were used to test the effect of PD0332991 on metastasis. When primary tumors reached 100-150 mm^3, mice were randomized and treated either with saline or PD0332991 for five weeks (n=8). Tumor weights were measured after mice were sacrificed (B). Tumor volumes were measured every week (C). After mice were sacrificed, liver (D-F) and lung (G-I) metastatic nodules were examined macroscopically or detected in paraffin-embedded sections stained with H&E. (J) The working model to illustrate that CDK 4/6 phosphorylation-dependent activation of DUB3 regulates EMT and metastasis through SNAIL1.
The results provided herein indicate that DUB3 stabilizes SNAIL1 polypeptide through deubiquitinating SNAIL1 and CDK 4/6 activity is involved in SNAIL1 stabilization. […] DUB3 and SNAIL1 levels were detected and correlated in a subset of human breast cancer samples from the BEAUTY project (FIG. 13A). […]
A patient-derived xenograft model was generated from an estrogen receptor-negative, progesterone receptor-negative, human epidermal growth factor receptor 2-negative (ER^−PR^−_HER2^−) high-grade invasive ductal carcinoma. […] Tumor volumes were measured once per week. […] Data were analyzed using Student's t test. […]

[2] = test system: phosphorylation of DUB3 at Ser41; experiment: Phosphorylation of DUB3 at Ser41 in transfected cells (anti-FLAG immunoprecipitation, Western blotting); type: cell-based; details: cells transfected with FLAG-DUB3 WT
Experimental: FIG. 8. CDK 4/6 phosphorylates DUB3 at Ser 41. (A) DUB3 phosphorylation sites were analyzed by mass spectrometry. If the Ascore values for Ascore Seq_A are above 19, then the location is considered confidently assigned (indicated with pink cell backgrounds). (B) Cells were transfected with indicated plasmids and cell lysates were subjected to immunoprecipitation with an anti-FLAG antibody and Western blotting was performed. (C) Cells were transfected with indicated plasmids and were treated with vehicle, or pan-CDK inhibitor (Roscovitine 5 μM) or CDK 4/6 inhibitor (PD0332991 10 μM). The phosphorylation of Ser41 was examined. (D) CDK 4/6 phosphorylates DUB3 in vitro. Bacterially expressed GST and GST-DUB3 fusion polypeptides were incubated with active CDK4 or CDK6 in the presence of [γ-32P]ATP. Polypeptides were resolved by SDS-PAGE, and phosphorylated polypeptides were visualized with autoradiography. (E) Vector or FLAG-DUB3 were transfected in cells stably expressing indicated shRNA. The phosphorylation of Ser41 in DUB3 was then examined.
FIG. 15. CDK1 phosphorylates DUB3 at Ser41 in vitro, and the treatment of pan-CDK inhibitor Roscovitine decreased phosphorylation of DUB3. (A) Bacterially-expressed GST-DUB3 WT and GST-DUB3 S41A fusion polypeptides were incubated with active CDK4, CDK6, CDK1, or CDK2 in the presence of [γ-^32P]ATP. […]

Nc1nc(N)c(N=O)c(OCC2CCCCC2)n1 [DU6027]
SNAIL1 polypeptide level (SNAIL1 polypeptide; BT549 cells, FIG. 16): decreases
SNAIL1 polypeptide level (SNAIL1 polypeptide; MDA-MB-231 cells, FIG. 17): decreases

CC(C)C[C@@H](C=O)NC(=O)[C@H](CC(C)C)NC(=O)[C@H](CC(C)C)NC(=O)OCc1ccccc1 [MG-132] (Cbz-Leu-Leu-Leu-aldehyde)
effect on decreased SNAIL1 polypeptide level in cells depleting DUB3 (SNAIL1 polypeptide; MDA-MB-231 cells stably expressing DUB3 shRNAs, MG-132 10 μM for 1 hour, FIG. 3D): rescue
effect on PD0332991-induced reduction of SNAIL1 polypeptide level (SNAIL1 polypeptide; MDA-MB-231 cells, PD0332991 in the presence of MG-132, FIG. 11D): reversed

CC(=O)c1c(C)c2cnc(Nc3ccc(N4CCNCC4)cn3)nc2n(C2CCCC2)c1=O [PD0332991, Palbociclib]
liver metastasis (mice with metastasis / mice in group) [1]: 1/8
lung metastasis (mice with metastasis / mice in group) [1]: 2/8

CC[C@H](CO)Nc1nc(NCc2ccccc2)c2ncn(C(C)C)c2n1 [Roscovitine]
phosphorylation of DUB3 at Ser41 ([2]; Example 11, FIG. 15B, concentration not given): dramatically reduced
phosphorylation of DUB3 at Ser41 ([2]; Roscovitine 5 μM, FIG. 8C): dramatically reduced
